Counter-ions that a name gives are not always drawn.
Key:
[1] = system: cells from 4 primitive epidermoid carcinomas of the larynx and 1 primitive undifferentiated carcinoma of the nasopharynx; assay: Effects of L-aC on cell cycle of cultured primitive human tumour cells (cytofluorimetric analysis); format: cell-based
Method: The effects of L-aC on cells from 4 primitive epidermoid carcinomas of the larynx and 1 primitive undifferentiated carcinoma of the nasopharynx were tested.
Tissue fragments from the tumour mass were mechanically dissociated in Hank's solutions adding an antibiotic and an antifungal to obtain a cell monosuspension free of agglomerates. The resulting suspension was centrifuged at 1200 rpm for 5 m′ and the pellet was resuspended in MEM culture medium supplemented with 10% of patient serum, to obtain a concentration of 2−3×10^4 cells/ml of medium. 1 ml Samples were prepared from the suspension, in amounts equivalent to the number of the concentrations to be assayed (0.2-20 mg/ml) as well as a control sample.
The suspensions were exposed to the medicament in Dubnoff bath at 37° C. for 24 h, then centrifuged and resuspended in 1 ml of fixing solution (tris buffer+methanol (1:3)) for 30 minutes and finally stained with 0.5% propyl iodide with simultaneous treatment with RNase.
Cytofluorimetric analysis in order to evaluate the percentage distribution of the cell cycle phases, was performed by an Ortho Diagnostic Spectrum III cytofluorigraph, equipped with Graphic Method computerized program.
The evaluation of the cell sensitivity to the medicament was based on the extent of the perturbations induced by L-aC on the cell cycle.

[2] = system: tumour cells from lymph nodes; assay: Effects of L-aC on cell cycle of cultured secondary human tumour cells; format: cell-based; conditions: 20 mg/ml
Method: L-aC was tested on tumour cells from lymph nodes taken from the same patients from which the primitive neoplasms had been taken.

[3] = system: HL60, Du 145, HT 29 and MCF 7 cell lines; assay: Sensitivity and apoptosis in all assayed stabilized human neoplastic cell lines; format: cell-based
Method: The effects of L-aC on stabilized human neoplastic cell lines were tested using the methylene blue assay.
Acute promyelocytic leukemia cell line (HL60) and prostate (Du 145), colon (HT 29) and breast (MCF 7) adenocarcinoma cell lines have been used.
Cell suspensions at concentrations of 10^5 cells/ml were prepared.
100 μl of the obtained cell suspension were inoculated on 96 well plates and incubated at 37° for 12 hours, to obtain cell adhesion to the plates. After 12 hours, L-aC was added at the concentrations of 0.2 mg/ml, 2 mg/ml, 20 mg/ml. After 72 hours, the culture medium was removed and 100 μl of 100% ethanol were added for 30 min. Subsequently ethanol was removed and 1% methylene-blue was added for 2 hours. The dye was then removed and the plates were dried before adding 1M HCl.
The induction of apoptosis has been detected due to nuclear cromatin condensation, cytoplasmic shrinking, endoplasmic reticulum dilatation and membrane blebbing together with DNA fragmentation.

Yoshida tumour = assay: Survived rats reinoculated with Yoshida tumour; format: in vivo, Sprague-Dowley rats
Method: 20 survivors rats previously transplanted with Yoshida tumour and subjected to the treatment on alternate days with 25 mg of L-aC diluted in 5 ml of saline solution […], were reinoculated with the tumour, at the end of the 6 week observation period.

## CC(=O)OC(CC(=O)[O-])C[N+](C)(C)C [L-aC, L-acetylcarnitine hydrochloride]
[1]; 0.2 mg/ml, 24 h, all samples
  increase in the percentage of S phase cells compared with the control: about 10%
[1]; 20 mg/ml, 24 h
  effect on cell cycle: block in the percentage of the cells in G1 phase
[1]; 20 mg/ml, tumour with pre-treatment ratio 31/69
  G1/S+G2M ratio after the treatment: 70/30
[2]; all samples
  activity versus that on cells from the primitive tumours: comparable
[2]; tumour with pre-treatment ratio 20/80
  G1/S+G2M ratio after treatment: 74/26
[3]; 0.2 mg/ml, all assayed cell lines
  programmed cell death phenomena: Phenomena suggestive of programmed cell death were already observed
[3]; 2 mg/ml
  programmed cell death phenomena: more marked and evident
[3]; 2 to 20 mg/ml
  change of effect over concentration range: No significant changes
[3]; all tested cell lines
  sensitivity of the tested cell lines: sensitive
Yoshida tumour; 20 survivors (25 mg L-aC alternate days, 4 weeks), until day 14 after reinoculation
  ascites after reinoculation: no animals showed ascites
Yoshida tumour; second reinoculation
  outcome of repeated reinoculation: unsuccessfully

— patent publication US6673839B1, “Pharmaceutical compositions with antitumour activity” (Universita' Degli Studi di Catania, priority 1998, dated 2004)
